According to PubChem BioAssay AID1259407 (Chemical Carcinogenesis Research Information System (CCRIS), 2018):
Calls of active or inactive are those of the source. No rule for the calls is given here.

Test system: CCRIS mutagenicity, Ames/micronucleus/aberration tests
Experiment: CCRIS mutagenicity studies
[1] = Test System: AMES SALMONELLA TYPHIMURIUM, Strain/Indicator: TA100, Metabolic Activation: NONE, Method: PREINCUBATION

C=C(C)C(=O)/C(=C\C(=O)O)OC was tested, and the mutagenic call (Test System: AMES SALMONELLA TYPHIMURIUM, Strain/Indicator: TA98, Metabolic Activation: NONE, Method: STANDARD PLATE) was “inactive; negative”, the mutagenic call (Test System: AMES SALMONELLA TYPHIMURIUM, Strain/Indicator: TA98, Metabolic Activation: RAT LIVER S-9, DELOREM 103, Method: STANDARD PLATE) was “inactive; negative” and the mutagenic call (Test System: AMES SALMONELLA TYPHIMURIUM, Strain/Indicator: TA98, Metabolic Activation: RAT, LIVER, MICROSOMES, PHENOBARBITAL, Method: STANDARD PLATE) was “inactive; negative”. For the same compound, the mutagenic call [1] was “inactive; negative”, the mutagenic call (Test System: AMES SALMONELLA TYPHIMURIUM, Strain/Indicator: TA100, Metabolic Activation: NONE, Method: STANDARD PLATE) was “inactive; negative” and the mutagenic call (Test System: AMES SALMONELLA TYPHIMURIUM, Strain/Indicator: TA100, Metabolic Activation: RAT LIVER S-9, DELOREM 103, Method: STANDARD PLATE) was “inactive; negative”. The mutagenic call (Test System: AMES SALMONELLA TYPHIMURIUM, Strain/Indicator: TA100, Metabolic Activation: RAT, LIVER, MICROSOMES, PHENOBARBITAL, Method: STANDARD PLATE) was “inactive; negative” and the mutagenic call (Test System: AMES SALMONELLA TYPHIMURIUM, Strain/Indicator: TA100, Metabolic Activation: RAT, LIVER, S-9, PHENOBARBITAL, Method: PREINCUBATION) was “inactive; negative”.

For COc1ccc(C(=O)c2ccccc2)c(O)c1, the mutagenic call (Test System: AMES SALMONELLA TYPHIMURIUM, Strain/Indicator: TA97, Metabolic Activation: HAMSTER, LIVER, S-9, AROCLOR 1254 (10%), Method: PREINCUBATION) was “inactive; negative”, the mutagenic call (Test System: AMES SALMONELLA TYPHIMURIUM, Strain/Indicator: TA97, Metabolic Activation: HAMSTER, LIVER, S-9, AROCLOR 1254 (30%), Method: PREINCUBATION) was “inactive; negative” and the mutagenic call (Test System: AMES SALMONELLA TYPHIMURIUM, Strain/Indicator: TA97, Metabolic Activation: NONE, Method: PREINCUBATION) was “inactive; negative”. For the same compound, the mutagenic call (Test System: AMES SALMONELLA TYPHIMURIUM, Strain/Indicator: TA97, Metabolic Activation: RAT, LIVER, S-9, AROCLOR 1254 (10%), Method: PREINCUBATION) was “inactive; negative”, the mutagenic call (Test System: AMES SALMONELLA TYPHIMURIUM, Strain/Indicator: TA97, Metabolic Activation: RAT, LIVER, S-9, AROCLOR 1254 (30%), Method: PREINCUBATION) was “inactive; negative” and the mutagenic call (Test System: AMES SALMONELLA TYPHIMURIUM, Strain/Indicator: TA98, Metabolic Activation: HAMSTER, LIVER, S-9, AROCLOR 1254 (10%), Method: PREINCUBATION) was “inactive; negative”. The mutagenic call (Test System: AMES SALMONELLA TYPHIMURIUM, Strain/Indicator: TA98, Metabolic Activation: HAMSTER, LIVER, S-9, AROCLOR 1254 (30%), Method: PREINCUBATION) was “inactive; negative”, the mutagenic call (Test System: AMES SALMONELLA TYPHIMURIUM, Strain/Indicator: TA98, Metabolic Activation: NONE, Method: PREINCUBATION) was “inactive; negative” and the mutagenic call (Test System: AMES SALMONELLA TYPHIMURIUM, Strain/Indicator: TA98, Metabolic Activation: RAT, LIVER, S-9, AROCLOR 1254 (10%), Method: PREINCUBATION) was “inactive; negative”. The mutagenic call (Test System: AMES SALMONELLA TYPHIMURIUM, Strain/Indicator: TA98, Metabolic Activation: RAT, LIVER, S-9, AROCLOR 1254 (30%), Method: PREINCUBATION) was “inactive; negative”, the mutagenic call (Test System: AMES SALMONELLA TYPHIMURIUM, Strain/Indicator: TA100, Metabolic Activation: HAMSTER, LIVER, S-9, AROCLOR 1254 (10%), Method: PREINCUBATION) was “inactive; negative” and the mutagenic call (Test System: AMES SALMONELLA TYPHIMURIUM, Strain/Indicator: TA100, Metabolic Activation: HAMSTER, LIVER, S-9, AROCLOR 1254 (30%), Method: PREINCUBATION) was “inactive; negative”. The mutagenic call [1] was “inactive; negative”, the mutagenic call (Test System: AMES SALMONELLA TYPHIMURIUM, Strain/Indicator: TA100, Metabolic Activation: RAT, LIVER, S-9, AROCLOR 1254 (10%), Method: PREINCUBATION) was “inactive; negative” and the mutagenic call (Test System: AMES SALMONELLA TYPHIMURIUM, Strain/Indicator: TA100, Metabolic Activation: RAT, LIVER, S-9, AROCLOR 1254 (30%), Method: PREINCUBATION) was “inactive; negative”. For the same compound, the mutagenic call (Test System: AMES SALMONELLA TYPHIMURIUM, Strain/Indicator: TA1535, Metabolic Activation: HAMSTER, LIVER, S-9, AROCLOR 1254 (10%), Method: PREINCUBATION) was “inactive; negative”, the mutagenic call (Test System: AMES SALMONELLA TYPHIMURIUM, Strain/Indicator: TA1535, Metabolic Activation: HAMSTER, LIVER, S-9, AROCLOR 1254 (30%), Method: PREINCUBATION) was “inactive; negative” and the mutagenic call (Test System: AMES SALMONELLA TYPHIMURIUM, Strain/Indicator: TA1535, Metabolic Activation: NONE, Method: PREINCUBATION) was “inactive; negative”. The mutagenic call (Test System: AMES SALMONELLA TYPHIMURIUM, Strain/Indicator: TA1535, Metabolic Activation: RAT, LIVER, S-9, AROCLOR 1254 (10%), Method: PREINCUBATION) was “inactive; negative”, the mutagenic call (Test System: AMES SALMONELLA TYPHIMURIUM, Strain/Indicator: TA1535, Metabolic Activation: RAT, LIVER, S-9, AROCLOR 1254 (30%), Method: PREINCUBATION) was “inactive; negative” and the mutagenic call (Test System: AMES SALMONELLA TYPHIMURIUM, Strain/Indicator: TA1537, Metabolic Activation: HAMSTER, LIVER, S-9, AROCLOR 1254 (10%), Method: PREINCUBATION) was “inactive; negative”. For the same compound, the mutagenic call (Test System: AMES SALMONELLA TYPHIMURIUM, Strain/Indicator: TA1537, Metabolic Activation: NONE, Method: PREINCUBATION) was “inactive; negative”, the mutagenic call (Test System: AMES SALMONELLA TYPHIMURIUM, Strain/Indicator: TA1537, Metabolic Activation: RAT, LIVER, S-9, AROCLOR 1254 (10%), Method: PREINCUBATION) was “inactive; negative” and the mutagenic call (Test System: MOUSE LYMPHOMA, Strain/Indicator: L5178Y (TK+/TK-), Metabolic Activation: NONE, Method: SUSPENSION/PLATE) was “inactive; positive. reevaluation of results: negative”. For the same compound, the mutagenic call (Test System: MOUSE LYMPHOMA, Strain/Indicator: L5178Y (TK+/TK-), Metabolic Activation: RAT, LIVER, S-9, AROCLOR 1254, Method: SUSPENSION/PLATE) was “active; positive. reevaluation of results: equivocal”.
